Consider two compounds from paper PMC6828666, “Discovery of holoenzyme-disrupting chemicals as substrate-selective CK2 inhibitors” (Scientific Reports, 2019).

The target of data set [1] is T1, CK2α/CK2β interaction (Homo sapiens, UniProt P68400). In words: In vitro CK2α/CK2β interaction assay ([35S]methionine-labeled CK2α, plate-bound MBP-CK2β). It counts as binding. How it is done:
The CK2α/CK2β interaction assay involved competition between plate-bound MBP-CK2β and the selected compounds for binding to soluble [^35S]methionine-labeled CK2α (10^5 cpm). The assays were performed in reacti-Bind streptavidin-coated high-binding-capacity 96-well plates (Pierce) in which each well was coated with 250 ng of biotinylated MBP-CK2β in 50 mM Tris/HCl, pH 7.2, and 0.4 M NaCl buffer. The compounds and [^35S]methionine-labeled CK2α were added in each well in the same buffer, incubated for 1 h at room temperature and triple-washed, after which the radioactivity of each well was determined using a scintillation counter. Positive control (100% competition) was determined with a 10-fold molar excess of untagged CK2α, and negative control (0% competition) was performed in the absence of competitor[35].

In data set [2] the target is T1, CK2α/CK2β interaction. The data set is described as follows: SPR competition study of MBP-CK2β binding to GST-CK2α. Particulars: 70 μM. How it is done:
SPR competition studies (Fig. 2i) were performed using a BIAcore 3000 instrument (BIAcore AB) equipped with a CM5 sensor chip (BIAcore AB). After activation with a solution of N-hydroxysuccinimide and N-ethyl-N-(dimethylaminopropyl)carbodiimide hydrochloride (coupling solution BIAcore AB), the anti-GST antibody diluted at 30 μg/ml in 10 mM acetate buffer pH 5.0 was injected at a flow rate of 5 μL/min for 7 min. All the surfaces were blocked with a 3 min injection at 10 μL/min of 1 M ethanolamine, pH 8.0. GST-CK2α (50 μg/ml) was immobilized on the surface at a flow rate of 5 μL/min in HBS (10 mM Hepes pH 7.3, 0.15 M NaCl, 3 mM EDTA, 0.005% polysorbate 20). MBP-CK2β diluted at 50 μg/ml in HBS buffer was injected over the surface at a flow rate of 5 μL/min in presence of various compound 1 concentration. Regeneration of the surfaces was achieved by injection of 10 mM glycine-HCl pH 2.2. SPR binding studies (Supplementary Fig. S7) were performed using a Reichert SR7000DC instrument optical biosensor (Reichert Technologies) equipped with a CMD500m sensor chip obtained from XanTec Bioanalytics. CK2α was immobilized by a capturing approach using a monoclonal anti-GST antibody (27 kDa, Clone GST-R 6G9 produced in rat, SAB4200055 Sigma Aldrich). […]

The next data set deals with T2, Pim-1 (Homo sapiens, UniProt P11309).
T2 construct: purchased Millipore (Upstate Kinase Profiler Panel Service)
In words: Kinase selectivity profiling (Millipore Kinase profiler). It counts as biochemical. Particulars: 100 μM compound; 10 μM ATP. How it is done:
(§1) Kinase selectivity of compound 1 was assessed using a panel of 45 recombinant protein kinases. The assays were performed at 10 μM ATP in the presence of 100 μM inhibitor using the Kinase profiler panel service (Millipore). Inhibition, expressed as the percent of activity determined in the absence of inhibitor, was calculated from the residual activity measured in the presence of 100 μM inhibitor.
(§2) Fig. S4. Kinase selectivity profile of compound 1 on a panel of 45 different protein kinases. The assays were performed at 10 μM ATP in the presence of 100 μM compound 1 using the Upstate Kinase Profiler Panel Service (Millipore). Residual activity in presence of 100 μM compound 1 are depicted in (a) and a graphical representation of the inhibition percentage in the presence of 100 μM compound 1 is shown in (b).

Another data set addresses T3, CK2α2β2 (Homo sapiens, UniProt P68400).
T3 construct: purchased Millipore (Upstate Kinase Profiler Panel Service)
Described as above. It counts as biochemical. Particulars: 100 μM compound; 10 μM ATP. The method, then: as §1, §2

The target in another data set is CK2α (Homo sapiens, UniProt P68400). Described as above. It counts as biochemical. Particulars: 100 μM compound; 10 μM ATP. How it is done: as §1, §2
Data set [3] in a line: Solubility in the protein buffer (WaterLOGSY NMR). It counts as physicochemical. Particulars: relative to the other compounds. The method, then:
Standard 1D, STD, and WaterLOGSY NMR spectra were acquired at 20 °C with a Bruker 600 MHz NMR spectrometer, equipped with a Z-gradient cryoprobe. WaterLOGSY mixing time was 1.5 s. Both STD and WaterLOGSY spectra were recorded for each sample. WaterLOGSY spectra in the absence of protein receptor were recorded with 300 µM compound to assess the compound solubility. All the NMR experiments were performed at 293 K with excitation sculpting to suppress peaks from water. 1D and STD experiments were performed using identical experimental conditions (spin lock, interscan delays), and parameters for the STD experiments (saturation frequency and saturation time) were identical for all samples. […] NMR tubes contained 2 μM CK2 with 300 μM of 4.

T1 sequence (P68400 whole entry): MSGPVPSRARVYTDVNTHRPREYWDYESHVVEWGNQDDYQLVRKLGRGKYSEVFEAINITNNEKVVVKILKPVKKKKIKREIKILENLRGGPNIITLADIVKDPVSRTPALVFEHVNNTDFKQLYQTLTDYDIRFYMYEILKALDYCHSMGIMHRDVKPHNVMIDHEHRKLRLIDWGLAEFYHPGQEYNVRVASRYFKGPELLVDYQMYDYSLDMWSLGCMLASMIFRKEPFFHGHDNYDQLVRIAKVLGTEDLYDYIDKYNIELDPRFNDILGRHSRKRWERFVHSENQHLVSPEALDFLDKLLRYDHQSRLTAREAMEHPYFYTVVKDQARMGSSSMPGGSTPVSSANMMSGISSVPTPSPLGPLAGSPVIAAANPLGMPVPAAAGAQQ
T3 sequence (P68400 whole entry): as above
CK2α, sequence (P68400 whole entry): as above
T2 sequence (P11309 whole entry): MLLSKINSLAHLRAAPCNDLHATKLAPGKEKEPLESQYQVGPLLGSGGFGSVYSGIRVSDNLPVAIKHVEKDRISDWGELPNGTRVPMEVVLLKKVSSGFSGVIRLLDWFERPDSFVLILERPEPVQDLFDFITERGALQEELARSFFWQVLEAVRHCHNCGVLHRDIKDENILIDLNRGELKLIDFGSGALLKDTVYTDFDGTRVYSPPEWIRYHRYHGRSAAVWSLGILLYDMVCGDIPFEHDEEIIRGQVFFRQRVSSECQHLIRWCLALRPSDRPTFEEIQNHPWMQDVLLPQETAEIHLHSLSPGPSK

In general, IC50 refers to the concentration that gives 50% inhibition. Usually inhibition stands for the drop in the measured response relative to a control, in per cent. Read a high inhibition as a response far below the control. In turn, `COc1[nH]c2ccc(F)cc2c1C(=O)OCC1CCN(CCNS(C)(=O)=O)CC1` [Compound 1] yielded a 50% inhibitory concentration (IC50) at CK2α/CK2β interaction [1] of roughly 80 µM. The “reduction of bound radioactive CK2α” value on CK2α/CK2β interaction [1] (single dose 300 μM) is “about 75%”. On CK2α/CK2β interaction [2], the “reduction of SPR signal (MBP-CK2β binding to GST-CK2α)” value is recorded as “about 60%”. Also, the inhibition at 100 µM turned out to be 36% on Pim-1, 85% against CK2α2β2 and 27% on CK2α.

As for `O=C(OCC1CCN(CCNS(=O)(=O)c2ccccc2)CC1)c1c[nH]c2ccccc12` [Compound 4, (1-(2-(Phenylsulfonamido)ethyl)piperidin-4-yl)methyl 1H-indole-3-carboxylate], the “solubility in the protein buffer” value in data set [3] is “highest solubility”.
